In patent publication US20080119530A1, “Method for treatment and prevention of ultraviolet light induced skin pathologies” (priority 2006, published 2008):

How the values were obtained:
Cdc25a = Cdc25a immunoblotting in keratinocytes; type: cell-based, mouse; details: vs appropriate controls
Method: Immunoblotting. Flash frozen skin was ground with a mortar and pestle on dry ice, homogenized in lysis buffer containing 10 mM Tris (pH 7.4), 150 mM NaCl, 10% glycerol, 1% Triton X-100, 1 mM EDTA, Complete Protease Inhibitor Cocktail (Roche, Germany), 1 mM Na3V O4, 1.5 μM EGTA, and 10 μM NaF. Protein was quantified using the Coomassie Brilliant Blue G-250 protein assay (Bio-Rad, Hercules, Calif.). The evenness of loading and transfer was determined by staining with Ponceau S and by actin immunoblotting. […]
Cell culture. […] Transfection efficiency was quantified by determining the proportion of the cells that incorporated the fluorescent Cy3-conjugated siRNA or GFP one day post-transfection. […]
In order to understand how Erbb2 regulates S-phase progression following UV irradiation, signaling pathways known to regulate progression into and through S-phase were examined. […] The effect of abrogation of Erbb2 on Cdc25a occurred post-transcriptionally, since no decrease in Cdc25a mRNA was detected in our microarray analysis using the Erbb2 inhibitor (32). […]

skin = assay: Cell cycle analysis of skin sections by flow cytometry; type: in vivo, mouse; details: inhibition prior to UV irradiation
Method: Flow cytometry. […] sections from paraffin embedded blocks were dewaxed with xylene, rehydrated and digested in PBS containing 0.5% pepsin (Sigma, St. Louis, Mo.). The nuclei were isolated by filtration and suspended in Vindelov's (56) solution reagent (3.5 mM tris base, pH 7.6, 10 mM NaCl, 10 μg/ml Ribonuclease A, 75 μg/ml PI, 1.0 μl/ml IPEGAL; (71)). At least 10,000 events from each sample were analyzed for flow cytometry on a FACSCalibur flow cytometer (Becton Dickinson, Franklin Lakes, N.J.). Data were acquired in the FL2 channel with a […] filter. Fluorescence signals were pulse processed and single cells identified using a FL2W versus FL2A plot. A histogram of FL2A was plotted for single cells and cell cycle distributions determined using ModFit LT 3.1 software (Verity Software House, Topsham, Me.).
Cell cycle. […] For in vitro analysis, keratinocytes were resuspended, fixed in 70% ethanol, resuspended in Vindelov's solution (3.5 mM Tris base, pH 7.6, 10 mM NaCl, 10 μg/ml Ribonuclease A, 75 μg/ml propidium iodide, 1.01l/ml IPEGAL), and analyzed on a FACSCalibur flow cytometer (Becton Dickinson, Franklin Lakes, N.J.). Cell cycle distributions were determined using ModFit LT 3.1 software (Verity Software House, Topsham, Me.). […]

Erbb3 = assay: UV-induced phosphorylation of Erbb3; type: cell-based, mouse
Description: (§1) Several methods were developed to regulate Erbb2 expression and activity both in vitro and in vivo.

Erbb2 = biological target: T1, Erbb2 (Mus musculus, UniProt P70424); assay: UV-induced activation (phosphorylation) of Erbb2; type: cell-based
T1 construct: endogenous in cells; host or cells: primary newborn mouse keratinocytes; also mouse epidermis/skin extracts
Description: For some experiments, the epidermis was separated from the skin by the heat shock method before homogenization. Keratinocytes were lysed in the same buffer. Membranes were immunoblotted with antibodies recognizing Erbb2, phospho-Erbb2 (Tyr^1248), EGFR, phospho-EGFR (Tyr^992), phospho-EGFR (Tyr^1173), phosphotyrosine, and Tall (Calbiochem, San Diego, Calif.). Binding of horseradish peroxidase-conjugated secondary antibodies (Cell Signaling, Beverly, Mass.) was visualized using chemiluminescent reagents (Pierce, Rockford, Ill.) and autoradiography. Densitometry was performed using IDScan software (Scanalytics, Fairfax, Va.).
as §1

T1 sequence (P70424 23-1256): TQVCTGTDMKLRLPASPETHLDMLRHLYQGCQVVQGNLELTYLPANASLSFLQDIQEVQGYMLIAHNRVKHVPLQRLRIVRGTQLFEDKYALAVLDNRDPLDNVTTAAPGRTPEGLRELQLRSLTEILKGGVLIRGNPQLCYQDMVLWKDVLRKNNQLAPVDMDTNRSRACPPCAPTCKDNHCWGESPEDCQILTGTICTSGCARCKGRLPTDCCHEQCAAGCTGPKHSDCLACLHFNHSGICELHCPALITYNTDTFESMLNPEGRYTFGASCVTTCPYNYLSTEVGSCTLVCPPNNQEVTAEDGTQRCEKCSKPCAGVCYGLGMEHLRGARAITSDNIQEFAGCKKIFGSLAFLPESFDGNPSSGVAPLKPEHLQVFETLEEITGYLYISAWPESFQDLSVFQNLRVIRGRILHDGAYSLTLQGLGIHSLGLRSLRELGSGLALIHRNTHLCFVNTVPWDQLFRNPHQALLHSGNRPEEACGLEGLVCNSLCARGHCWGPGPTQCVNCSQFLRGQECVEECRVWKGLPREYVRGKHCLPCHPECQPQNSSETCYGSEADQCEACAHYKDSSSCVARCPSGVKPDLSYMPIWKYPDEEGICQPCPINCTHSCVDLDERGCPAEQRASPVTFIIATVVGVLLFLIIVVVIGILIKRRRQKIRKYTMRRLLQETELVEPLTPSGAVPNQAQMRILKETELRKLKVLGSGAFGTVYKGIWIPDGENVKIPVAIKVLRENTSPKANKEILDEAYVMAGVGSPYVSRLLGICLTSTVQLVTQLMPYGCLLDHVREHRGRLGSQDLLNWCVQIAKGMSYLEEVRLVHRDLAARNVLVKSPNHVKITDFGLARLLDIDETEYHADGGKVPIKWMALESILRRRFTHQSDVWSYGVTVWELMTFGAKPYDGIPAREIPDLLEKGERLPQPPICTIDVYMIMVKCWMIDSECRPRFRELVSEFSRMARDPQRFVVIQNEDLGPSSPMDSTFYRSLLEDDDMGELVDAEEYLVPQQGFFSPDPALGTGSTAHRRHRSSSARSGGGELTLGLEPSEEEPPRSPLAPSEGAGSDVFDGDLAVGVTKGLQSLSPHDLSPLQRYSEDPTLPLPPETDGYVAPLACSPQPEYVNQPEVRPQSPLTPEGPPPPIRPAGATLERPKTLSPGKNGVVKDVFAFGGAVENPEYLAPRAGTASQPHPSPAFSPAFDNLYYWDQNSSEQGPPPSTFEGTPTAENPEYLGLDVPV

COc1cc(/C=C(\C#N)C(N)=O)cc(CSc2nc3ccccc3s2)c1O [AG825] was tested, and the Cdc25a immunoreactivity (Cdc25a) was “decreased”, the “S-phase cells in skin” value (skin) was “increased” and the “UV-induced phosphorylation of Erbb3-Tyr1289” value (Erbb3) was “blocked”. The “duration of the inhibition of Erbb2” value (Erbb2) was “less than 24 h”, the “activation of Erbb2 by UV” value (Erbb2; both in vivo and in vitro) was “blocked” and the “UV-induced phosphorylation of Erbb2 at Tyr1248” value (Erbb2; cultured keratinocytes) was “inhibited”.
